Active and inactive are the calls of the source.
Columns and labels:
Format in all cases: functional
Liver microsomes = test: Inhibition of lipid peroxidation activity in Wistar rat liver microsomes by TBRAS assay; settings: Microsome
[1] = Hydrogen peroxide radical scavenging activity
[2] = Superoxide radical scavenging activity assessed as NBT reduction

Measured: Activity

COc1cc(/C=C/C(=O)OCC2COC(=O)CCCCCCCCCCCCCCCCCCCCCCCO2)ccc1O (configuration not stated)
active: Liver microsomes | [1] | [2]

COc1cc(/C=C/C(=O)OCC2COC(=O)CCCCCCCCCCCCCCCCCCCCCCCCCCO2)ccc1O (configuration not stated)
active: Liver microsomes | [1] | [2]

COc1cc(/C=C\C(=O)OCC2COC(=O)CCCCCCCCCCCCCCCCCCCCCCCCCCCCCCCCCO2)ccc1O (configuration not stated)
active: Liver microsomes | [1] | [2]

COc1cc(/C=C/C(=O)OCC2COC(=O)CCCCCCCCCCCCCCCCCCCCCCCCCCCCCO2)ccc1O (configuration not stated)
active: Liver microsomes | [1] | [2]

COc1cc(/C=C/C(=O)OCC2COC(=O)CCCCCCCCCCCCCCCCCCCCCCCCO2)ccc1O (configuration not stated)
active: Liver microsomes | [1] | [2]

COc1cc(/C=C\C(=O)OCC2COC(=O)CCCCCCCCCCCCCCCCCCCCCCCCO2)ccc1O (configuration not stated)
active: Liver microsomes | [1] | [2]

COc1cc(/C=C/C(=O)OCC2COC(=O)CCCCCCCCCCCCCCCCCCCCCCCCCCCCO2)ccc1O (configuration not stated)
active: Liver microsomes | [1] | [2]

COc1cc(/C=C/C(=O)OCC2COC(=O)CCCCCCCCCCCCCCCCCCCCO2)ccc1O (configuration not stated)
active: Liver microsomes | [1] | [2]

COc1cc(/C=C/C(=O)OCC2COC(=O)CCCCCCCCCCCCCCCCCCO2)ccc1O (configuration not stated)
active: Liver microsomes | [1] | [2]
